Reference: patent publication US7355033B2, “Screening for West Nile Virus antiviral therapy” (Health Research, Inc., priority 2002, dated 2008)

What was measured:
[1] = tested on: lineage I WNV replicon (Rluc/NeoRep); assay: Rluc activity in BHK-21 reporting cell line containing WNV Rluc/NeoRep replicon; type: cell-based; conditions: West Nile virus, 24 h compound treatment, 12-well plates, estimated from Rluc curves, read-out: EC50 (compound concentration required to inhibit 50% of the Rluc activity)
Description: (§1) To test the stability of the replicon-containing cell lines, cells at various time points post-selection (p.s.) were examined for viral and Rluc protein expression, and for replicon RNA copy numbers. […] (lower two panels in FIG. 18B). […] (ii) Stable and high levels of Rluc activity were detected from cells collected on days 20, 50, and 80 p.s. (FIG. 18C). For Rluc assay, 10^6 cells were lysed in 500 microliters of lysis buffer; 20 microliters of lysate was measured for Rluc activity according to the manufacturer (Promega) using a Lumat luminometer (EG & G, Berthold, Australia). Approximately 8×10^6 light units were consistently detected from 4×10^4 cells, about 200 light units per cell. (iii) A consistent level of replicon RNA was maintained in cells at 20, 50, and 80 days p.s. (FIG. 18D). Real-time RT-PCR, targeting the viral NS1 region, was used to quantify replicon RNA as previously reported (Shi, P. Y., et al. 2002. Virology 296:219-233; Shi, P. Y., et al. 2002. J. Virol. 76:5847-56; Lo, M. K., et al. 2003. J. Virology 77, 12901-12906). Total RNA extracted from 10^6 cells was eluted in 50 microliters of RNase-free water using RNeasy kits (Qiagen); 5 microliters of RNA was quantified by real-time RT-PCR, using in vitro trancribed RNA as standards. About 10^9 replicon molecules in 10^5 cells was estimated, or about 10^4 replicon RNAs per cell.
To examine whether the reporting cell line can be used as an antiviral assay, three known WNV inhibitors were tested in the cells: 6-azauridine, an inhibitor of orotidine monophosphate decarboxylase, and mycophenolic acid and ribavirin, inhibitors of inosine monophosphate dehydrogenase (De Clercq, E. 1993. Advance Virus Res. 42:1-55; Jordan, I., et al. 2000. J. Infect. Dis. 182:1214-7; Morrey, J., et al. 2002. Antiviral Res. 55:107-116). Ribavirin has also been reported to function as a mutagen, causing lethal levels of mutagenesis within the virus population (Crotty, S., et al. 2000. Nature Med. 6:1375-9). All three compounds were purchased from Sigma (St. Louis, Mo.). Initially, the assay was performed in 12-well plates. […]

[2] = tested on: lineage I WNV replicon (Rluc/NeoRep) RNA; assay: Replicon RNA copy number by real-time RT-PCR in Rluc/NeoRep reporting cell line; type: cell-based; conditions: West Nile virus, 24 h, read-out: EC50 derived from the replicon RNA copy numbers
Description: as §1
To verify that the reduction in Rluc activity reflected the compound inhibition of viral RNA replication, RT-PCR was performed. After 24 h of compound treatment, cells from the 12-well plates were assayed for RNA amounts as described above, except that 12 μl from the 50 μl extracted RNA was used in the real-time RT-PCR assay. […] The relative potencies of the three tested compounds are also similar to those observed with the Rluc results, in the decreasing order of mycophenolic acid, 6-azauridine, and ribavirin (compare FIGS. 19A to 19B). […]

[3] = tested on: WNV; conditions: Morrey et al. 2002; read-out: EC50 derived from the standard viral infection assay; cited from earlier work

Compound | EC50 [1] [µM] | EC50 [2] [µM] | EC50 [3] [µM]
O=c1cnn([C@@H]2O[C@H](CO)[C@@H](O)[C@H]2O)c(=O)[nH]1 [6-azauridine] | 11 | > 300 | 6.1
COc1c(C)c2c(c(O)c1C/C=C(\C)CCC(=O)O)C(=O)OC2 [mycophenolic acid] | 5.4 | ~100 | 8.4
NC(=O)c1ncn([C@@H]2O[C@H](CO)[C@@H](O)[C@H]2O)n1 [ribavirin] | 140 | > 300 | 178
